# Assay results as given in patent US8362000B2, “Azetidinyl diamides as monoacylglycerol lipase inhibitors” (Janssen Pharmaceutica NV, priority 2009, dated 2013).
# pKd: −log10 of the molar value.
# Target: T1, mutant MGL (Homo sapiens, UniProt Q99685, L169S/L176S)
# T1 sequence (Q99685 1-303 L169S/L176S): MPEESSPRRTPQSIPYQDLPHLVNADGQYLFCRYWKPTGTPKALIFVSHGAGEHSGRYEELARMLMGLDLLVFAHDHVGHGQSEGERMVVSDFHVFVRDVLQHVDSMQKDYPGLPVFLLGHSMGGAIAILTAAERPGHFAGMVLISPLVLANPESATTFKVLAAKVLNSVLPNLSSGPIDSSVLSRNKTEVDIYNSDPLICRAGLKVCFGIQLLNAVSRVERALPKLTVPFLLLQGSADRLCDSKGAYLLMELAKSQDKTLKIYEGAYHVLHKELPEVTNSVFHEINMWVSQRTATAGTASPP
# Test: MGL ThermoFluor assay - mutant
# Format: binding
# Conditions: ThermoFluor concentration-response, read-out: MGL mutant ThermoFluor Kd
row,Compound,pKd
1,"O=C(c1ccc2[nH]ccc2c1)N1CC(N2CCN(C(=O)c3nccs3)CC2)C1 [Cpd 911, 5-({3-[4-(1,3-Thiazol-2-ylcarbonyl)piperazin-1-yl]azetidin-1-yl}carbonyl)-1H-indole]",6.48
2,"O=C(c1ccccc1)N1CCN(C2CN(C(=O)c3ccc(=O)n(Cc4ccccc4)c3)C2)CC1 [Cpd 565, 1-Benzyl-5-({3-[4-(phenylcarbonyl)piperazin-1-yl]azetidin-1-yl}carbonyl)pyridin-2(1H)-one]",< 4.51
3,"Cc1nc(-c2cccc(C(F)(F)F)c2)sc1C(=O)N1CC(N2CCN(C(=O)c3ccccc3)CC2)C1 [Cpd 618, 1-[1-({4-Methyl-2-[3-(trifluoromethyl)phenyl]-1,3-thiazol-5-yl}carbonyl)azetidin-3-yl]-4-(phenylcarbonyl)piperazine]",7.10
4,"O=C(c1ccccc1)N1CCN(C2CN(C(=O)c3ccc4c(ccn4-c4ncc(F)cn4)c3)C2)CC1 [Cpd 598, 1-(5-Fluoropyrimidin-2-yl)-5-({3-[4-(phenylcarbonyl)piperazin-1-yl]azetidin-1-yl}carbonyl)-1H-indole]",6.60
5,"CC(C)n1c(C(F)(F)F)nc2cc(C(=O)N3CC(N4CCN(C(=O)c5ccccc5)CC4)C3)ccc21 [Cpd 38, 1-(1-Methylethyl)-5-({3-[4-(phenylcarbonyl)piperazin-1-yl]azetidin-1-yl}carbonyl)-2-(trifluoromethyl)-1H-benzimidazole]",6.74
6,O=C(c1ccccc1)N1CCN(C2CN(C(=O)c3ccc(CNc4ccccc4F)cc3)C2)CC1 [Cpd 553],6.43
7,O=C(c1ccccc1)N1CCN(C2CN(C(=O)c3ccc(Oc4ccc(Cl)cc4)cc3)C2)CC1 [Cpd 425],6.70
8,"CC(C)(C)OC(=O)N1CCC(c2ccccc2C(=O)N2CC(N3CCN(C(=O)c4ccccc4)CC3)C2)C1 (centres unmarked) [Cpd 111, tert-Butyl 3-[2-({3-[4-(phenylcarbonyl)piperazin-1-yl]azetidin-1-yl}carbonyl)phenyl]pyrrolidine-1-carboxylate]",5.00
9,O=C(c1cscn1)N1CCN(C2CN(C(=O)C3CCC(C(F)(F)F)CC3)C2)CC1 (centres unmarked) [Cpd 644],< 4.12
10,"O=C(c1ccccc1)N1CCN(C2CN(C(=O)C3CCC(c4ccccc4)CC3)C2)CC1 (centres unmarked) [Cpd 106, 1-(Phenylcarbonyl)-4-{1-[(4-phenylcyclohexyl)carbonyl]azetidin-3-yl}piperazine]",6.81
11,"O=C(c1ccccc1)N1CCN(C2CN(C(=O)c3cccn(Cc4cccc(Cl)c4)c3=O)C2)CC1 [Cpd 562, 1-(3-Chlorobenzyl)-3-({3-[4-(phenylcarbonyl)piperazin-1-yl]azetidin-1-yl}carbonyl)pyridin-2(1H)-one]",< 4.51
12,"O=C(c1ccccc1)N1CCN(C2CN(C(=O)c3ccc(N4CCOCC4)cc3)C2)CC1 [Cpd 541, 4-[4-({3-[4-(Phenylcarbonyl)piperazin-1-yl]azetidin-1-yl}carbonyl)phenyl]morpholine]",5.78
13,"O=C(c1ccccc1)N1CCN(C2CN(C(=O)c3nc(-c4ccccc4)oc3C(F)(F)F)C2)CC1 [Cpd 625, 1-(Phenylcarbonyl)-4-(1-{[2-phenyl-5-(trifluoromethyl)-1,3-oxazol-4-yl]carbonyl}azetidin-3-yl)piperazine]",< 4.51
14,"O=C(c1ccccc1)N1CCN(C2CN(C(=O)c3ccc(N4CCCCC4)cc3)C2)CC1 [Cpd 53, 1-(Phenylcarbonyl)-4-{1-[(4-piperidin-1-ylphenyl)carbonyl]azetidin-3-yl}piperazine]",7.00

# Second part, the compound after the results:
row,pKd,Compound
1,< 4.20,O=C(c1cscn1)N1CCN(C2CN(C(=O)c3cc(Br)ccc3F)C2)CC1 [Cpd 925]
2,8.00,"O=C(c1ccc(SCc2cccc(Cl)c2)cc1)N1CC(N2CCN(C(=O)c3nccs3)CC2)C1 [Cpd 412, 1-[1-({4-[(3-Chlorobenzyl)sulfanyl]phenyl}carbonyl)azetidin-3-yl]-4-(1,3-thiazol-2-ylcarbonyl)piperazine]"
3,4.70,O=C(c1ccc(CS(=O)(=O)c2cccc(C(F)(F)F)c2)cc1)N1CC(N2CCN(C(=O)c3cscn3)CC2)C1 [Cpd 977]
4,6.60,"Cn1c2ccccc2c2cc(C(=O)N3CC(N4CCN(C(=O)c5ccccc5)CC4)C3)ccc21 [Cpd 51, 9-Methyl-3-({3-[4-(phenylcarbonyl)piperazin-1-yl]azetidin-1-yl}carbonyl)-9H-carbazole]"
5,< 4.51,"O=C(Nc1cccc(C(=O)N2CC(N3CCN(C(=O)c4ccccc4)CC3)C2)c1)C1CCCCC1 [Cpd 539, N-[3-({3-[4-(Phenylcarbonyl)piperazin-1-yl]azetidin-1-yl}carbonyl)phenyl]cyclohexanecarboxamide]"
6,7.58,"O=C(c1ccccc1)N1CCN(C2CN(C(=O)c3ccc(-c4cc(Cl)cc(Cl)c4)cc3)C2)CC1 [Cpd 79, 1-{1-[(3′,5′-Dichlorobiphenyl-4-yl)carbonyl]azetidin-3-yl}-4-(phenylcarbonyl)piperazine]"
7,6.00,"O=C(c1ccccc1)N1CCN(C2CN(C(=O)c3ccc(-n4cnc5ccccc54)cc3)C2)CC1 [Cpd 48, 1-[4-({3-[4-(Phenylcarbonyl)piperazin-1-yl]azetidin-1-yl}carbonyl)phenyl]-1H-benzimidazole]"
8,7.60,"O=C(c1ccc(SCc2ccc(Cl)c(Cl)c2)cc1)N1CC(N2CCN(C(=O)c3nccs3)CC2)C1 [Cpd 414, 1-[1-({4-[(3,4-Dichlorobenzyl)sulfanyl]phenyl}carbonyl)azetidin-3-yl]-4-(1,3-thiazol-2-ylcarbonyl)piperazine]"
9,7.10,"O=C(c1ccccc1)N1CCN(C2CN(C(=O)c3ccc(-c4ccc(Cl)cc4)cc3)C2)CC1 [Cpd 78, 1-{1-[(4′-Chlorobiphenyl-4-yl)carbonyl]azetidin-3-yl}-4-(phenylcarbonyl)piperazine]"
10,6.00,"Cc1oc(-c2ccccc2)cc1C(=O)N1CC(N2CCN(C(=O)c3ccccc3)CC2)C1 [Cpd 623, 1-{1-[(2-Methyl-5-phenylfuran-3-yl)carbonyl]azetidin-3-yl}-4-(phenylcarbonyl)piperazine]"
11,8.07,O=C(c1ccc(CNc2cccc(Cl)c2)cc1)N1CC(N2CCN(C(=O)c3nccs3)CC2)C1 [Cpd 455]
12,5.54,Cc1ccc(-c2ccc(C(=O)N3CC(N4CCN(C(=O)c5cscn5)CC4)C3)[nH]2)cc1 [Cpd 298]
13,5.00,"O=C(c1cscn1)N1CCN(C2CN(C(=O)c3ccc(Br)cc3Cl)C2)CC1 [Cpd 25, 1-{1-[(4-Bromo-2-chlorophenyl)carbonyl]azetidin-3-yl}-4-(1,3-thiazol-4-ylcarbonyl)piperazine]"
14,8.04,"O=C(c1ccccc1)N1CCN(C2CN(C(=O)c3ccc(-c4ccc(F)cc4)cc3)C2)CC1 [Cpd 33, 1-{1-[(4′-Fluorobiphenyl-4-yl)carbonyl]azetidin-3-yl}-4-(phenylcarbonyl)piperazine]"
15,4.52,O=C(c1cncc(-c2ccccc2)c1)N1CC(N2CCN(C(=O)c3cscn3)CC2)C1 [Cpd 169]

# Same assay, conditions: ThermoFluor thermal stability binding assay, read-out: MGL mutant ThermoFluor Kd
row,Compound,pKd
1,"O=C(c1ccc2c(c1)CCCN2c1ccc(C(F)(F)F)cc1)N1CC(N2CCN(C(=O)c3nccs3)CC2)C1 [Cpd 373, 6-({3-[4-(1,3-Thiazol-2-ylcarbonyl)piperazin-1-yl]azetidin-1-yl}carbonyl)-1-[4-(trifluoromethyl)phenyl]-1,2,3,4-tetrahydroquinoline]",8.26
2,"O=C(c1ccc2c(c1)CCCN2c1ncccn1)N1CC(N2CCN(C(=O)c3nccs3)CC2)C1 [Cpd 375, 1-Pyrimidin-2-yl-6-({3-[4-(1,3-thiazol-2-ylcarbonyl)piperazin-1-yl]azetidin-1-yl}carbonyl)-1,2,3,4-tetrahydroquinoline]",6.64
3,"CS(=O)(=O)N1CCCc2cc(C(=O)N3CC(N4CCN(C(=O)c5ccccc5)CC4)C3)ccc21 [Cpd 363, 1-(Methylsulfonyl)-6-({3-[4-(phenylcarbonyl)piperazin-1-yl]azetidin-1-yl}carbonyl)-1,2,3,4-tetrahydroquinoline]",5.17
4,CC(=O)N1c2ccc(-c3cccc(C(F)(F)F)c3)cc2CCC1C(=O)N1CC(N2CCN(C(=O)c3nccs3)CC2)C1 (centres unmarked) [Cpd 917],5.30
5,"O=C(c1ccccc1)N1CCN(C2CN(C(=O)c3ccc4nc(-c5cccc(C(F)(F)F)c5)oc4c3)C2)CC1 [Cpd 131, 6-({3-[4-(Phenylcarbonyl)piperazin-1-yl]azetidin-1-yl}carbonyl)-2-[3-(trifluoromethyl)phenyl]-1,3-benzoxazole]",7.03

# The next lines start with the values.
row,pKd,Compound
1,5.77,O=C(c1cscn1)N1CCN(C2CN(C(=O)c3nc(-c4ccccc4)oc3C(F)(F)F)C2)CC1 [Cpd 1403]
2,8.48,"Cc1cc(C(=O)N2CC(N3CCN(C(=O)c4cscn4)CC3)C2)ccc1-c1ccc(Cl)c(C(F)(F)F)c1 [Cpd 258, 1-(1-{[4′-Chloro-2-methyl-3′-(trifluoromethyl)biphenyl-4-yl]carbonyl}azetidin-3-yl)-4-(1,3-thiazol-4-ylcarbonyl)piperazine]"
3,9.30,"Cc1cc(C(=O)N2CC(N3CCN(C(=O)c4nccs4)CC3)C2)ccc1-c1cccc(C(F)(F)F)c1 [Cpd 241, 1-(1-{[2-Methyl-3′-(trifluoromethyl)biphenyl-4-yl]carbonyl}azetidin-3-yl)-4-(1,3-thiazol-2-ylcarbonyl)piperazine]"
4,< 4.51,O=C(c1ccc(-c2ccccc2)cc1)N1CC(N2CCN(C(=O)c3ncccn3)CC2)C1 [Cpd 1478]
5,7.32,"CC(=O)Nc1cccc(-c2ccc(C(=O)N3CC(N4CCN(C(=O)c5nccs5)CC4)C3)cc2)c1 [Cpd 234, N-[4′-({3-[4-(1,3-Thiazol-2-ylcarbonyl)piperazin-1-yl]azetidin-1-yl}carbonyl)biphenyl-3-yl]acetamide]"
6,6.60,O=C(c1ccccc1)N1CCN(C2CN(C(=O)c3ccc4oc(-c5ccccc5)nc4c3)C2)CC1 [Cpd 132]
7,6.23,"CC(=O)Nc1cccc(-c2ccc(C(=O)N3CC(N4CCN(C(=O)c5cscn5)CC4)C3)cc2)c1 [Cpd 235, N-[4′-({3-[4-(1,3-Thiazol-4-ylcarbonyl)piperazin-1-yl]azetidin-1-yl}carbonyl)biphenyl-3-yl]acetamide]"
